Literature values as cited in paper PMC4084622 (Journal of Medicinal Chemistry, 2014).

System: M. tuberculosis
Settings: M. tuberculosis H37Rv, Erdman, and drug-resistant strains; cited from earlier work

CC(C)=CCC/C(C)=C/CNCCNC1C2CC3CC(C2)CC1C3 (stereo not shown) [compound 1, SQ109]
minimum inhibitory concentration (MIC): 0.7 to 1.56 µM
